# Laboratory results published in patent US9549943B2, “A3 adenosine receptor ligands for use in treatment of a sexual dysfunction” (CAN-FITE BIOPHARMA LTD., priority 2012, dated 2017).
# How the values were obtained:
# [1] = tested on: patients with active rheumatoid arthritis (RA); test: Phase 2 study of oral CF101 added to weekly Methotrexate in rheumatoid arthritis; sexual effects; type: in vivo, human; settings: CF101 0.1 mg or 1 mg tablets orally every 12 h for 12 weeks, with weekly MTX
# Experimental: Phase 2 study in patients with active rheumatoid arthritis (RA) (randomized, double-blind, placebo-controlled), treated in parallel with CF101 administrated orally when added to weekly Methotrexate (MTX). The patients were given CF101 either 0.1 mg or 1 mg tablets or placebo tablets, taken orally every 12 h for 12 weeks. Washout of other disease-modifying antirheumatic drugs (DMARDs), including biological agents was occurring prior to dosing.
# [2] = tested on: Patients with Moderate-to-Severe Dry Eye Disease; test: Phase 3 clinical study of oral CF101 in dry eye disease; patient-reported sexual effects; type: in vivo, human
# Text: The clinical study (the “Study”) was a Phase 3, Randomized, Double-Masked, Placebo-Controlled, Dose-Finding, Parallel-Group Study of the Safety and Efficacy of Daily CF101 Administered Orally in Patients with Moderate-to-Severe Dry Eye Disease, keratoconjunctivitis sicca (KCS). CF101 is an experimental pharmaceutical composition where the active ingredient is IB-MECA. The study had two primary objectives: (i) determine the efficacy of oral administered CF101, as compared to placebo, when administered at doses of either 0.1 mg or 1.0 mg (namely 0.1 and 1 mg of IB-MECA per each administration, respectively) twice daily for 24 weeks in patients with KCS, and (ii) determine the safety of this drug in the patients. Patients were randomized to receive pills of either CF101 0.1 mg, CF101 1.0 mg, or matching placebo, given orally twice daily (BID) for 24 weeks. A Screening Period of up to 4 weeks that includes a 2-week run-in period that preceded the 24-week treatment period, followed by a 2-week follow-up period. The patients that were enrolled in the study had to meet a number of inclusion criteria (namely criteria that had to be matched for a human subject to participate in the study), including (i) being 18 years of age and over, (ii) being diagnosed with moderate-to-severe Aqueous-Deficient Dry Eye (including Sjögren's Syndrome dry eye), as defined by acceptable clinical criteria, and (iii) a variety of other criteria. Patients that met certain exclusion criteria that related to certain ophthalmic conditions and use of other medications. Clinical outcome in improving KCS symptoms was determined through a variety of relevant ophthalmic parameters. In addition, adverse events were recorded for each patient throughout the study and all effects reported by patients were reported. By the time of filing this patent application the study was still ongoing. […] It should be noted that at this time of reporting of these events the study was still masked, namely it is not known whether the patients received CF101 or placebo and if CF101 than the dose of the drug.
# [3] = tested on: patients with moderated to severe Plaque Psoriasis (PS); test: Phase 2 study of oral CF101 in Plaque Psoriasis; sexual effects; type: in vivo, human; settings: CF101 1 mg, 2 mg and 4 mg orally twice daily for 12 weeks
# Experimental: In a further Phase 2 study, randomized, double-blind, dose-ranging, placebo-controlled study was conducted to determine safety and activity of CF101 administered orally in patients with moderated to severe Plaque Psoriasis (PS). CF101 was administered at 1 mg. 2 mg and 4 mg twice daily for 12 weeks.
# [4] = tested on: Male C57BL/6j mice; test: Concanavalin A mouse model treated with allosteric enhancer; erection observed; type: in vivo; settings: 100 μg/kg orally 8 h after Con.A and 2 h before termination, no signs in control-untreated group
# Experimental: Male C57BL/6j mice, 8 weeks of age, were injected intravenously (tail vein) with concanavalin A (Con.A) (20 mg/kg). twenty four hours after Con.A injection, levels of alanine aminotransferase (ALT) and aspirate aminotransferase (AST) were measured in the serum.
# The allosteric compound, Luf6000 (also known as N-(3,4-dichloro-phenyl)-2-cyclohexyl-1H-imidazo[4,5-c]quinolin-4-amine), was orally administered at a dose of 100 μg/kg 8 h after Con.A administration and 2 h before termination.
compound,measurement,setting,value
"CNC(=O)[C@H]1O[C@@H](n2cnc3c(NCc4cccc(I)c4)ncnc32)[C@H](O)[C@@H]1O [CF101, N^6-(3-iodobenzyl)-adenosine-5′-N-methyluronamide]",erection or increase in sexual desire in patients,[1],some of the patients experienced erection or increase in sexual desire
same,erection or increase in sexual desire in patients,"[2]; oral CF101, patients with moderate to severe dry eye disease (summary statement)",some of the patients experienced erection or increase in sexual desire
same,period during which erection occurred every day after each intake,[2]; patient,about 10 days
same,sexual potency reported by patient,"[2]; patient (code 104507), oral, twice daily, 0.1 mg or 1 mg, study still masked",increase of sexual potency
same,time after intake to unprovoked erection,"[2]; patient, after each CF101 intake",around 30 minutes
same,erection reported by patient after intake,"[2]; patient, oral, twice daily, 0.1 mg or 1 mg, study still masked",unprovoked erection
same,erection or increase in sexual desire in patients,[3],some of the patients experienced erection or increase in sexual desire
"Clc1ccc(Nc2nc3ccccc3c3[nH]c(C4CCCCC4)nc23)cc1Cl [Luf6000, N-(3,4-dichloro-phenyl)-2-cyclohexyl-1H-imidazo[4,5-c]quinolin-4-amine]",erection in treated mice,[4],erection was noticed
same,erection in treated mice,[4]; listed as LUF6000,exhibited erection
